Measured values as given in patent publication US20210220489A1, “AMYGDALAR NEURAL ENSEMBLE THAT ENCODES THE UNPL[…] PAIN” (The Board of Trustees of the Leland Stanford Junior …, priority 2020, published 2021).

What was measured:
noci-TRAP^hM4 mice = experiment: Thermal gradient track adaptive avoidance; format: in vivo; details: versus saline
Procedure: To evaluate affective-motivational responses evoked by thermal stimulation (81), we applied either a single, unilateral 50-μL drop of water (5, 30, or 55° C.) or acetone (evaporative cooling) to the left hindpaw, and the duration of attending behavior was collected for up to 60 s after the stimulation. Only one drop stimulation was applied on a given testing session. To evaluate adaptive thermal avoidance and temperature preference, we placed mice in the center of a linear Thermal Gradient Track (121.92-cm L×8.25-cm W metal alloy floor; 15.24-cm H black plastic walls), with the floor featuring a temperature gradient along the long axis. Mice freely explored the track for 60 min. To create the temperature gradient, we placed either heating or cooling plates (Bioseb) under the outermost 16.51 cm of the metal floor, with one plate set to 50.0° C. and the other set to 0.0° C., creating an actual floor gradient of 48° C.→5° C., respectively. The track was subdivided into 25 temperature zones (4.8-cm D per zone), and we assessed the temperature at the center of each zone by a K-probe thermocouple. […] A video camera placed above the track recorded the position of the mouse within the temperature zones, and videos were later analyzed using a video-tracking software (Etho-vision, Noldus) for duration of zone occupancy, zone visits, distance, velocity, and acceleration.

[1] = test system: control mice expressing eYFP in the BLA nociceptive ensemble; experiment: Pain behaviors in control mice expressing eYFP in the BLA nociceptive ensemble (no hM4); format: in vivo
Procedure: For chemogenetic activity manipulation of BLA neuronal ensembles, we intracranially injected 100 nL of either AAV5-hSyn-DIO-hM4-mCherry (U. North Carolina Viral Core; titre: 3.98×1012), AAV5-hSyn-DIO-mCherry (U. North Carolina Viral Core; titre: 4.72×1012), AAVDJ-Ef1a-DIO-eYFP (Stanford Viral Core; titre: 2.65×1011) into both the left and right BLA at coordinates AP: −1.20 mm, ML: ±3.1 mm, DV: −4.60 mm.
(§1) To evaluate mechanical reflexive sensitivity, we used a logarithmically increasing set of 8 von Frey filaments (Stoelting), ranging in gram force from 0.07- to 6.0-g (93). These filaments were applied perpendicular to the plantar hindpaw with sufficient force to cause a slight bending of the filament. A positive response was characterized as a rapid withdrawal of the paw away from the stimulus within 4 s. Using the Up-Down statistical method, the 50% withdrawal mechanical threshold scores were calculated for each mouse and then averaged across the experimental groups. The response frequency was calculated as the number of positive responses out of 10 stimulations, delivered at 30-s intervals.
To evaluate affective-motivational responses evoked by mechanical stimulation, we used three von Frey filaments (0.07-g, 0.4-g, and 2.0-g) and a sharp 25G syringe needle (pin prick) (94). […]
(§2) To evaluate affective-motivational responses evoked by thermal stimulation (81), we applied either a single, unilateral 50-μL drop of water (5, 30, or 55° C.) or acetone (evaporative cooling) to the left hindpaw, and the duration of attending behavior was collected for up to 60 s after the stimulation. […] The track was subdivided into 25 temperature zones (4.8-cm D per zone), and we assessed the temperature at the center of each zone by a K-probe thermocouple. […] A video camera placed above the track recorded the position of the mouse within the temperature zones, and videos were later analyzed using a video-tracking software (Etho-vision, Noldus) for duration of zone occupancy, zone visits, distance, velocity, and acceleration.

control neuropathic mice = experiment: Pain behaviors in control neuropathic mice not expressing hM4-mCherry in the BLA; format: in vivo; details: absence of hM4 expression, CNO 10 mg/kg, morphine as positive control
Text: To induce a chronic pain state, we used a modified version of the Spared Nerve Injury (SNI) model of neuropathic pain, as previously described (70). This model entails surgical section of two of the sciatic nerve branches (common peroneal and tibial branches) while sparing the third (sural branch). […] To perform this peripheral nerve injury procedure, anesthesia was induced and maintained throughout surgery with isoflurane (4% induction, 1.5% maintenance in oxygen). The left hind leg was shaved and wiped clean with alcohol and betadine. We made a 1-cm incision in the skin of the mid-dorsal thigh, approximately where the sciatic nerve trifurcates. The biceps femoris and semimembranosus muscles were gently separated from one another with blunt scissors, thereby creating a <1-cm opening between the muscle groups to expose the common peroneal, tibial, and sural branches of the sciatic nerve. Next, −2 mm of both the common peroneal and tibial nerves were transected and removed, without suturing and with care not to distend the sural nerve. The leg muscles are left uncultured and the skin was closed with tissue adhesive (3M Vetbond), followed by a Betadine application. During recovery from surgery, mice were placed under a heat lamp until awake and achieved normal balanced movement. Mice were then returned to their home cage and closely monitored over the following three days for well-being.
as §1, with “A positive response was characterized as a rapid withdrawal of the paw away from the stimulus within 4 s.” left out
as §2

[2] = test system: ChR2-eYFP+ nociceptor mice; experiment: Optical real-time place escape avoidance task; format: in vivo; details: CNO 10 mg/kg
Text: To evaluate active avoidance and escape behaviors to optogenetically driven nociception, mice expressing ChR2 in peripheral primary afferent nociceptors freely explored a custom-built two-choice chamber with LED-lit floor panels. A 32×32 LED array (8×8 cm) illuminated half the array in blue light, and the other half in red light (˜0.3 mW/mm^2). A thin glass surface (0.5 cm thick) covered the array floor, upon which we fitted a black plastic chamber (38 cm H) with a center divider wall containing a square passage hole (5-cm D) raised 2.5 cm from the array floor. The entire LED chamber was maintained in a quiet room with low ambient light (˜5 lux). We first placed mice in the red-light chamber and then allowed them to freely explore the chambers for 15 min. A camera placed above the chamber recorded the location of the mouse in the apparatus. We manually scored the videos to determine the time spent by the mouse in each chamber (automated tracking was not possible given the light from the LED floor). Only one mouse was present in the room during all trials.

BLA neurons = experiment: Clozapine-N-oxide control experiments with BLA Ca2+ imaging (no hM4 expression); format: in vivo, mice; details: CNO 10 mg/kg
Procedure: To check for possible alterations of neural activity in the presence of CNO alone (i.e., no hM4 expression), we conducted a shortened version of the main protocol (FIGS. 15D-15G). We injected mice with CNO (10 mg/kg), then placed them back in their home cage. After approximately 25 min, we mounted the miniature microscope on the mouse's head and placed them within the test chamber. They habituated for 10 min followed by adlibitum access to 10% sucrose solution delivered in the same manner as previously described. Mice then received a battery of stimuli: light touch (0.07-g von Frey filament), noxious pin (25G needle), or aloud noise (˜85 dB, same as previously described). We collected all subsequent data, processed Ca2+ imaging movies, and performed analysis similar to the main protocol used in FIG. 7.

[3] = CNO 10 mg/kg, AAVDJ-Ef1α-DIO-eYFP control mice

Compound: C[N+]1([O-])CCN(C2=Nc3cc(Cl)ccc3Nc3ccccc32)CC1 [CNO, clozapine-N-oxide]
- visits to the noxious zones (noci-TRAP^hM4 mice; polar ends noxious cold (5 to 17° C.) and hot (42 to 8° C.)): more frequently
- occupancy of the noxious zones (noci-TRAP^hM4 mice; polar ends noxious cold (5 to 17° C.) and hot (42 to 48° C.)): prolonged periods
- affective-motivational behaviors [1, 3]: Lack of effect
- reflexive behaviors [1, 3]: Lack of effect
- pain behaviors ([1]; CNO alone, control mice): had no effect
- affective-motivational behaviors (control neuropathic mice; acetone drop): Lack of effect
- reflex behaviors (control neuropathic mice; von Frey filaments): Lack of effect
- aversion to the noxious blue light chamber [2]: eliminated the aversion
- mean neural response to various stimuli (BLA neurons): did not alter
